From patent US20180371044A1, “PEPTIDOMIMETIC MACROCYCLES” (Aileron Therapeutics, Inc., priority 2015, published 2018) come the findings set out here.

Series [1] can be described thus: Plasma compatibility. The series is classed as physicochemical. The protocol:
The plasma compatibility of exemplary peptidomimetic macrocycles was also determined. Peptidomimetic macrocycles with a plasma compatability value (PC) that is greater than 0.1 were determined as being plasma compatible.

Series [2] is described as follows: Plasma PK/PD study in rats. The series is classed as in vivo, rat. The conditions noted are these: male Sprague-Dawley rats; for MRT / clearance / Vd / half-life / AUC(0-inf): rat, 3 mg/kg; for clearance: read-out: Clp (converted); for Vd: read-out: Vdss; for half-life: read-out: t ½ (converted); for AUC(0-inf): route not given. As to the method: Five peptidomimetic macrocycles of the invention, as well as sermorelin, were studied to determine pharmacokinetic and pharmacodynamic parameters in rats. Male Sprague-Dawley rats (300 g, non-fasted, cannulated) were used. The study had three arms: IV administration, SC administration, and SC administration (vehicle control). For experiments using sermorelin, a dose level of 3 mg/kg IV/SC bolus was used (dose volume of […] dose and dose concentration of 1 mg/mL). The vehicle used was: 10 wt % N, N-Dimethylacetamide, 10 wt % DMSO, 2 wt % Solutol HS 15 in water for injection containing 45 mg/mL (4.5 wt %) Mannitol and 25 mM (0.38 wt %) Histidine (pH 7.5; 320 mOsm/kg). The peptide was first dissolved at high concentration in DMA and DMSO before a second dilution in Solutol vehicle.
For experiments using peptidomimetic macrocycles, 0.1 mL of DMA and 0.1 mL of DMSO were used to combine with each mg of macrocycle (˜4.3-4.5 mg of macrocycle used in each experiment). Sonication was used to ensure complete solubilization. 0.8 mL of Solutol vehicle was used for each mg of macrocycle in DMA/DMSO. The solutions were mixed gently with pipet or light vortexing. Fresh vials were used for each day of dosing, and macrocycles were stored solid at −20° C. prior to formulation.
For each study arm, 2 rats were bled (350 μL) at specific time points (5 min, 15 min, 30 min, 1 h, 2 h, 4 h, 8 h, 24 h, and 48 h) and a 150 μL bleed was performed just before dosing. Plasma was prepared into K2EDTA tubes by centrifuging for 20 minutes at 4° C. at 2000G maximum 30 minutes after collection. From each 350 μL bleed, 120 μL were transferred to one tube for PK studies and 50 μL to another tube for PD studies and frozen immediately. From the 150 μL bleed, 70 μL were transferred to one tube for PD studies and frozen immediately.

The target in series [3] is T1, human GHRH receptor (hGHRHR) (Homo sapiens, UniProt Q02643).
T1 construct: expressed in transfected cells; host or cells: Human 293 cells
T1 sequence (Q02643 23-423): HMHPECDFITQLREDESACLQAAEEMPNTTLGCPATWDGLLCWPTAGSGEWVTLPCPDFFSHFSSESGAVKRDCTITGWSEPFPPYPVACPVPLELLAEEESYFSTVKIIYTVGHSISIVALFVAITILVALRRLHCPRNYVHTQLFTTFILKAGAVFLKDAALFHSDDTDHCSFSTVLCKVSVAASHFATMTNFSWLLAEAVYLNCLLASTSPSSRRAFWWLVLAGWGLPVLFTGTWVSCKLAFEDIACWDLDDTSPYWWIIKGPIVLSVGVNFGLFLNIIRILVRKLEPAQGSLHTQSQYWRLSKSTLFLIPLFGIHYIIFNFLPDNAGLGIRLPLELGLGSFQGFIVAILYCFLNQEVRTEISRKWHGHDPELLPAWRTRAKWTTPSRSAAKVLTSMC
Put plainly: GHRHR agonism measured by cAMP (HTRF) in human 293 cells expressing hGHRHR.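 Note: receptor expressed transiently or stably, cells stimulated in serum-free medium, EC50 from a non-linear dose-response fit, maximal response defined by reference GHRH stimulation.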 The conditions noted are these: 30 min at RT. The series is classed as cell-based. (In TR-FRET formats the signal depends on donor and acceptor labels being close together.)
Procedure: GHRH (1-29) and cross-linked peptidomimetic macrocycles were tested for agonism at the human GHRH receptor (hGHRHR) at various concentrations. Human 293 cells transiently or stably expressing hGHRHR were detached from cell culture flasks with versene (Life Technologies™), suspended in serum-free medium (50 k cells/assay point), and stimulated for 30 min at RT with GHRH (1-29) (Bachem™) or cross-linked peptidomimetic macrocycles. cAMP was quantified using an HTRF®-based assay (CisBio) and used according to the manufacturer's instructions. An EC50 for each agonist was calculated from a non-linear fit of response vs dose (GraphPad™ Prism). The maximum response was determined by stimulating with 10 μM GHRH (1-29). (+=>50 nm; ++=>25-50 nm; +++=>10-25 nm; ++++=>1-10 nm; +++++=≤1 nm).

SMILES strings stand for the structures. Where a SMILES comes first, the peptide text is derived from it. Bridges are numbered along the chain shown (N, C = ends). [ ]: non-standard residue; d: D form. NMeY = CN[C@@H](Cc1ccc(O)cc1)C(=O)O; R8 = C=CCCCCCC[C@@](C)(N)C(=O)O; S5 = C=CCCC[C@](C)(N)C(=O)O; Nle = CCCC[C@H](N)C(=O)O

With `CCCC[C@H](NC(=O)[C@@H](NC(=O)[C@H](CC(=O)O)NC(=O)[C@H](CCC(N)=O)NC(=O)[C@H](CC(C)C)NC(=O)[C@H](C)NC(=O)[C@H](CCCCN)NC(=O)[C@H](CCCNC(=N)N)NC(=O)[C@H](C)NC(=O)[C@H](CO)NC(=O)[C@]1(C)CCCC=CCCC[C@](C)(NC(=O)[C@H](CCCCN)NC(=O)[C@H](CCCNC(=N)N)NC(=O)[C@H](Cc2ccc(O)cc2)NC(=O)[C@H](CO)NC(=O)[C@H](CCC(N)=O)NC(=O)[C@@H](NC(=O)[C@H](Cc2ccccc2)NC(=O)[C@@H](NC(=O)[C@H](C)NC(=O)[C@H](CC(=O)O)NC(=O)[C@@H](C)NC(=O)[C@@H](N)Cc2ccc(O)cc2)[C@@H](C)CC)[C@@H](C)O)C(=O)N[C@@H](CC(C)C)C(=O)N[C@@H](C)C(=O)N[C@@H](CCC(N)=O)C(=O)N1)[C@@H](C)CC)C(=O)N[C@@H](CO)C(=O)N[C@@H](CCCNC(=N)N)C(N)=O` (single isomer, unassigned) [SP-108], the “Plasma Compatability” value in series [1] worked out at 1.6 mg/mL.

On to `CCCC[C@@H]1NC(=O)[C@H]([C@@H](C)CC)NC(=O)[C@H](CC(=O)O)NC(=O)[C@@](C)(NC(=O)[C@H](CC(C)C)NC(=O)[C@H](C)NC(=O)[C@H](CCCCN)NC(=O)[C@H](CCCNC(=N)N)NC(=O)[C@H](C)NC(=O)[C@H](CO)NC(=O)[C@H](CC(C)C)NC(=O)[C@H](CCC(N)=O)NC(=O)[C@H](C)NC(=O)[C@H](CC(C)C)NC(=O)[C@@H](NC(=O)[C@H](CCCCN)NC(=O)[C@H](CCCNC(=N)N)NC(=O)[C@H](Cc2ccc(O)cc2)NC(=O)[C@H](CO)NC(=O)[C@H](C)NC(=O)[C@@H](NC(=O)[C@H](Cc2ccccc2)NC(=O)[C@@H](NC(=O)[C@H](C)NC(=O)[C@H](CC(=O)O)NC(=O)[C@H](C)NC(=O)[C@H](Cc2ccc(O)cc2)NC)[C@@H](C)CC)[C@@H](C)O)C(C)C)CCCC=CCCC[C@@](C)(C(=O)N[C@@H](CCCNC(=N)N)C(N)=O)NC1=O` [SP-21] (H-[NMeY]ADAIFTASYRKVLAQLSARKAL[S5]DI[Nle][S5]R-NH2; staple 24-28; N-terminus and C-terminus assumed), for which, in series [2], the “AUC Ext (%)” value worked out at 9.4%; the MRT (as a rule, a mean duration of stay, worked out from the concentration-time curve) was found to be 5.3 h; the clearance was 1.65 mL/min/kg; the Vd worked out at 0.524 L/kg. In series [2], the half-life is 606 min and the AUC(0-inf) (commonly total exposure, with the tail of the curve extrapolated) was 30500 ng·h/mL.

For `CCCC[C@H](NC(=O)[C@@H](NC(=O)[C@H](CC(=O)O)NC(=O)[C@H](CCC(N)=O)NC(=O)[C@H](CC(C)C)NC(=O)[C@H](C)NC(=O)[C@H](CCCCN)NC(=O)[C@H](CCCNC(=N)N)NC(=O)[C@H](C)NC(=O)[C@H](CO)NC(=O)[C@]1(C)CCCC=CCCC[C@](C)(NC(=O)[C@H](CCCCN)NC(=O)[C@H](CCCNC(=N)N)NC(=O)[C@H](Cc2ccc(O)cc2)NC(=O)[C@H](CO)NC(=O)[C@H](CCC(N)=O)NC(=O)[C@@H](NC(=O)[C@H](Cc2ccccc2)NC(=O)[C@@H](NC(=O)[C@H](C)NC(=O)[C@H](CC(=O)O)NC(=O)[C@@H](C)NC(=O)[C@@H](N)Cc2ccc(O)cc2)[C@@H](C)CC)[C@@H](C)O)C(=O)N[C@@H](CC(C)C)C(=O)N[C@@H](C)C(=O)N[C@@H](CCC(=O)O)C(=O)N1)[C@@H](C)CC)C(=O)N[C@@H](CO)C(=O)N[C@@H](CCCNC(=N)N)C(N)=O` [SP-105] (H-Y[dA]DAIFTQSYRK[S5]LAE[S5]SARKALQDI[Nle]SR-NH2; staple 13-17), the “Plasma Compatability” value in series [1] was found to be 1.2 mg/mL.

As to `CCCC[C@H](NC(=O)[C@@H](NC(=O)[C@H](CC(=O)O)NC(=O)[C@H](CCC(N)=O)NC(=O)[C@H](CC(C)C)NC(=O)[C@H](C)NC(=O)[C@H](CCCCN)NC(=O)[C@H](CCCNC(=N)N)NC(=O)[C@H](C)NC(=O)[C@H](CO)NC(=O)[C@]1(C)CCCC=CCCC[C@](C)(NC(=O)[C@H](CCCCN)NC(=O)[C@H](CCCNC(=N)N)NC(=O)[C@H](Cc2ccc(O)cc2)NC(=O)[C@H](CO)NC(=O)[C@H](CCC(N)=O)NC(=O)[C@@H](NC(=O)[C@H](Cc2ccccc2)NC(=O)[C@@H](NC(=O)[C@H](C)NC(=O)[C@H](CC(=O)O)NC(=O)[C@@H](C)NC(=O)[C@@H](N)Cc2ccc(O)cc2)[C@@H](C)CC)[C@@H](C)O)C(=O)N[C@@H](CC(C)C)C(=O)N[C@@H](C)C(=O)N[C@@H](C)C(=O)N1)[C@@H](C)CC)C(=O)N[C@@H](CO)C(=O)N[C@@H](CCCNC(=N)N)C(N)=O` [SP-104] (H-Y[dA]DAIFTQSYRK[S5]LAA[S5]SARKALQDI[Nle]SR-NH2; staple 13-17), the “Plasma Compatability” value in series [1] was 1.2 mg/mL.

With `CCCC[C@@H]1NC(=O)[C@H](C)NC(=O)[C@H](CC(C)C)NC(=O)[C@@](C)(NC(=O)[C@H](CCCCN)NC(=O)[C@H](CCCNC(=N)N)NC(=O)[C@H](Cc2ccc(O)cc2)NC(=O)[C@H](CO)NC(=O)[C@H](CCC(N)=O)NC(=O)[C@@H](NC(=O)[C@H](Cc2ccccc2)NC(=O)[C@@H](NC(=O)[C@H](C)NC(=O)[C@H](CC(=O)O)NC(=O)[C@@H](C)NC(=O)[C@@H](N)Cc2ccc(O)cc2)[C@@H](C)CC)[C@@H](C)O)CCCC=CCCC[C@@](C)(C(=O)N[C@@H](CO)C(=O)N[C@@H](C)C(=O)N[C@@H](CCCNC(=N)N)C(=O)N[C@@H](CCCCN)C(=O)N[C@@H](C)C(=O)N[C@@H](CC(C)C)C(=O)N[C@@H](CCC(N)=O)C(=O)N[C@@H](CC(=O)O)C(=O)N[C@H](C(=O)N[C@@H](CCCC)C(=O)N[C@@H](CO)C(=O)N[C@@H](CCCNC(=N)N)C(N)=O)[C@@H](C)CC)NC1=O` [SP-106] (H-Y[dA]DAIFTQSYRK[S5]LA[Nle][S5]SARKALQDI[Nle]SR-NH2; staple 13-17), the “Plasma Compatability” value in series [1] was 0.9 mg/mL.

Consider `CCCC[C@@H]1NC(=O)[C@H]([C@@H](C)CC)NC(=O)[C@H](CC(=O)O)NC(=O)[C@H](CCC(N)=O)NC(=O)[C@H](CC(C)C)NC(=O)[C@H](C)NC(=O)[C@](C)(NC(=O)[C@H](CCCNC(=N)N)NC(=O)[C@H](C)NC(=O)[C@H](CO)NC(=O)[C@H](CC(C)C)NC(=O)[C@H](CCC(N)=O)NC(=O)[C@H](C)NC(=O)[C@H](CC(C)C)NC(=O)[C@@H](NC(=O)[C@H](CCCCN)NC(=O)[C@H](CCCNC(=N)N)NC(=O)[C@H](Cc2ccc(O)cc2)NC(=O)[C@H](CO)NC(=O)[C@H](C)NC(=O)[C@@H](NC(=O)[C@H](Cc2ccccc2)NC(=O)[C@@H](NC(=O)[C@H](C)NC(=O)[C@H](CC(=O)O)NC(=O)[C@H](C)NC(=O)[C@H](Cc2ccc(O)cc2)NC)[C@@H](C)CC)[C@@H](C)O)C(C)C)CCCCCCC=CCCC[C@@](C)(C(=O)N[C@@H](CCCNC(=N)N)C(N)=O)NC1=O` [SP-32] (H-[NMeY]ADAIFTASYRKVLAQLSAR[R8]ALQDI[Nle][S5]R-NH2; staple 21-28; N-terminus and C-terminus assumed), for which, in series [2], the “AUC Ext (%)” value worked out at 3.0%, the MRT is 2.3 h, the clearance is 1.35 mL/min/kg and the Vd worked out at 0.19 L/kg. Further, in series [2], the half-life was 582 min and the AUC(0-inf) was determined as 37000 ng·h/mL.

`CCCC[C@H](NC(=O)[C@@H](NC(=O)[C@H](CC(=O)O)NC(=O)[C@H](CCC(N)=O)NC(=O)[C@H](CC(C)C)NC(=O)[C@H](C)NC(=O)[C@H](CCCCN)NC(=O)[C@H](CCCNC(=N)N)NC(=O)[C@H](C)NC(=O)[C@H](CO)NC(=O)[C@H](CC(C)C)NC(=O)[C@H](CCC(N)=O)NC(=O)[C@H](C)NC(=O)[C@H](CC(C)C)NC(=O)[C@@H](NC(=O)[C@H](CCCCN)NC(=O)[C@H](CCCNC(=N)N)NC(=O)[C@H](Cc1ccc(O)cc1)NC(=O)[C@H](CO)NC(=O)[C@H](C)NC(=O)[C@@H](NC(=O)[C@H](Cc1ccccc1)NC(=O)[C@@H](NC(=O)[C@]1(C)CCCC=CCCC[C@](C)(N)C(=O)N[C@@H](Cc2ccc(O)cc2)C(=O)N[C@@H](C)C(=O)N[C@@H](CC(=O)O)C(=O)N1)[C@@H](C)CC)[C@@H](C)O)C(C)C)[C@@H](C)CC)C(=O)N[C@@H](CO)C(=O)N[C@@H](CCCNC(=N)N)C(N)=O` [SP-6] (H-[S5]YAD[S5]IFTASYRKVLAQLSARKALQDI[Nle]SR-NH2; staple 1-5): in series [2], the “AUC Ext (%)” value was found to be 16.3%, the MRT is 3.7 h, the clearance is 2.13 mL/min/kg and the Vd is 0.474 L/kg. For the same molecule, in series [2], the half-life is 1240 min and the AUC(0-inf) came to 23500 ng·h/mL. Besides, in series [3], the EC50 – broadly, the concentration at which the effect is half-maximal – is 25 to 50 nM.
